{
  "source": "paper PMC4209162",
  "about": "“Specific aromatic foldamers potently inhibit spontaneous and seeded Aβ42 and Aβ43 fibril assembly” (Biochemical Journal, 2014)",
  "key": {"Aβ42 [1]": {"molecular_target": "T1, Aβ42 (Homo sapiens, UniProt P05067)", "T1 sequence (P05067 672-713 limits assumed)": "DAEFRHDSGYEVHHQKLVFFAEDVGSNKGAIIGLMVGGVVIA", "assay": "Spontaneous Aβ42 fibrillization (ThT fluorescence, EM)", "type": "biochemical", "settings": "for Inhibition of spontaneous Aβ42 fibrillization: Aβ42 5 μM, foldamer 10 μM, 8 h, agitation, ThT fluorescence (EM 4 h); for Inhibition of spontaneous Aβ42 fibrillization / Inhibition of spontaneous Aβ42 fibrillization, different assembly conditions: 25°C; for Inhibition of spontaneous Aβ42 fibrillization, different assembly conditions: Aβ prepared without DMSO, PBE pH 8, Aβ42 5 μM, foldamer 20 μM, 16 h, ThT"}, "Aβ43 [2]": {"molecular_target": "T2, Aβ43 (Homo sapiens, UniProt P05067)", "T2 sequence (P05067 672-714 limits assumed)": "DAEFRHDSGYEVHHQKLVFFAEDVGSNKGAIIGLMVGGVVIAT", "assay": "Spontaneous Aβ43 fibrillization (ThT fluorescence, EM)", "type": "biochemical", "settings": "for Inhibition of spontaneous Aβ43 fibrillization, different assembly conditions: Aβ prepared without DMSO, PBE pH 8, Aβ43 5 μM, foldamer 20 μM, 16 h"}, "Aβ42 oligomers": {"molecular_target": "Aβ42 oligomers (Homo sapiens, UniProt P05067)", "sequence (P05067 672-713 limits assumed)": "as the sequence (P05067 672-713 limits assumed) above", "assay": "A11-reactive Aβ42 conformers (ELISA)", "type": "biochemical", "settings": "Aβ42 5 μM, foldamer 20 μM, 25°C; for Effect on A11-reactive Aβ42 conformers after 0.5 h: 0.5 h (end of lag phase); for Effect on A11-reactive Aβ42 conformers after 4 h: 4 h (endpoint of fibrillization)"}, "Aβ43 [3]": {"molecular_target": "T2, Aβ43", "assay": "Seeded Aβ43 fibrillization (ThT fluorescence, EM)", "type": "biochemical", "settings": "ThT; for Inhibition of seeded Aβ43 fibrillization, different assembly conditions: Aβ prepared without DMSO, PBE pH 8, Aβ43 5 μM plus seed 0.1 μM monomer, foldamer 20 μM, 16 h"}, "Aβ43 oligomers": {"molecular_target": "Aβ43 oligomers (Homo sapiens, UniProt P05067)", "sequence (P05067 672-714 limits assumed)": "as the sequence (P05067 672-714 limits assumed) above", "assay": "A11-reactive Aβ43 conformers (ELISA)", "type": "biochemical", "settings": "Aβ43 5 μM, foldamer 20 μM, 25°C; for Effect on A11-reactive Aβ43 conformers after 0.5 h: 0.5 h (end of lag phase); for Effect on A11-reactive Aβ43 conformers after 4 h: 4 h (endpoint of fibrillization)"}, "Aβ42 fibrils": {"molecular_target": "Aβ42 fibrils (Homo sapiens, UniProt P05067)", "sequence (P05067 672-713 limits assumed)": "as the sequence (P05067 672-713 limits assumed) above", "assay": "Disassembly of preformed Aβ42 fibrils", "type": "biochemical", "settings": "foldamer in 4-fold molar excess, 24 h (results not shown)"}, "Aβ42 [4]": {"molecular_target": "T1, Aβ42", "assay": "Seeded Aβ42 fibrillization (ThT fluorescence, EM)", "type": "biochemical", "settings": "for Inhibition of seeded Aβ42 fibrillization, different assembly conditions: Aβ prepared without DMSO, PBE pH 8, Aβ42 5 μM plus seed 0.1 μM monomer, 16 h"}, "[5]": {"test_system": "SH-SY5Y human neuroblastoma cells", "assay": "Toxicity of Aβ42 conformers to SH-SY5Y cells (MTT reduction, LDH release)", "type": "cell-based", "settings": "24 h, MTT and LDH; for Effect on toxicity of Aβ42 conformers after 0.5 h of assembly: Aβ42 5 μM assembled with foldamer 20 μM for 0.5 h; for Effect on toxicity of Aβ42 conformers after 4 h of assembly: Aβ42 5 μM assembled with foldamer 20 μM for 4 h", "protocol": "(§1) SH-SY5Y human neuroblastoma cells were maintained in Dulbecco's modified Eagle's medium (DMEM) plus 10 mM Hepes, 10% FBS, 4 mM glutamine, penicillin (200 units/ml) and streptomycin (200 μg/ml) in 5% CO2 at 37°C. Cells were differentiated in serum-free DMEM with N2 supplement and 10 μM all-trans-retinoic acid before use. Cells were plated at (10000 cells/well) in 96-well plates and grown overnight. Medium was removed and Aβ conformers or controls were added and cells were incubated for 24 h at 37°C. Toxicity was assessed using an MTT kit (Tox-1; Sigma) or via lactate dehydrogenase (LDH) release using the CytoTox-ONE™ kit (Promega). Toxicity values were normalized to the buffer control without Aβ."}, "[6]": {"test_system": "SH-SY5Y human neuroblastoma cells", "assay": "Toxicity of Aβ43 conformers to SH-SY5Y cells (MTT reduction, LDH release)", "type": "cell-based", "settings": "24 h, MTT and LDH; for Effect on toxicity of Aβ43 conformers after 0.5 h of assembly: Aβ43 5 μM assembled with foldamer 20 μM for 0.5 h; for Effect on toxicity of Aβ43 conformers after 4 h of assembly: Aβ43 5 μM assembled with foldamer 20 μM for 4 h", "protocol": "as §1"}, "FUS": {"molecular_target": "T3, FUS (Homo sapiens, UniProt P35637)", "T3 sequence (P35637 1-526)": "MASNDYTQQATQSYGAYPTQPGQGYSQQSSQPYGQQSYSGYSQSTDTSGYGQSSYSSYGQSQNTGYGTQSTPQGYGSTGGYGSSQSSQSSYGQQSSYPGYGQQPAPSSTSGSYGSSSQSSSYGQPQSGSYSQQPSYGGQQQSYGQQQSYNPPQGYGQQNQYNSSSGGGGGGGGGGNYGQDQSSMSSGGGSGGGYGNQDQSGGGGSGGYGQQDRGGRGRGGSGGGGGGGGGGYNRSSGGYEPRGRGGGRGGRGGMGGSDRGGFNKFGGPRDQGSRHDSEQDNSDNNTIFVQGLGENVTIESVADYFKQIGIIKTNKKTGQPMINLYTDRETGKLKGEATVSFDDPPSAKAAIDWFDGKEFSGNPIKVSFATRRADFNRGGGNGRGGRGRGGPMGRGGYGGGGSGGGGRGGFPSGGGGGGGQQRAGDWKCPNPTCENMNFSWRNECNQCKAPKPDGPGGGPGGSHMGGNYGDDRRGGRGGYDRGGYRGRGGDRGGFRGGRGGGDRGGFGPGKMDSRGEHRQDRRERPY", "assay": "FUS aggregation (turbidity, absorbance at 395 nm)", "type": "biochemical", "settings": "GST-FUS 5 μM, foldamer 20 μM, plus TEV protease, 25°C, 0–90 min", "protocol": "GST–TEV–FUS was purified as described. Aggregation was initiated by addition of tobbaco etch virus (TEV) protease to GST–TEV–FUS (5 μM) plus or minus foldamer (20 μM) in assembly buffer (50 mM Tris/HCl pH 8, 0.2 M trehalose and 20 mM glutathione). Aggregation was for 0–90 min at 25°C without agitation in a 96-well plate and was assessed by turbidity (absorbance at 395 nm) using a Tecan Infinite M1000 plate reader. No aggregation occurred unless TEV protease was added to separate GST from FUS [58]."}},
  "note": "Entries after “also recorded” stand apart in the source; their conditions may differ.",
  "data": [
    {"compound": "COc1ccc(NC(=O)[C@H](CCCNC(N)=O)NC(=O)c2cc(NC(=O)[C@H](CCCNC(=N)N)NC(=O)c3cc(NC(=O)[C@H](CCCNC(=N)N)NC(=O)c4cc(NC(=O)[C@@H](N)CCCNC(=N)N)ccc4OC)ccc3OC)ccc2OC)cc1C(N)=O", "note": "[(Arg-Sal)3-(Cit-Sal)-CONH2]", "values": [
      {"measurement": "IC50", "setting": "Aβ42 [1]", "value": "~1600", "unit": "nM"},
      {"measurement": "IC50", "setting": "Aβ43 [2]", "value": "~3100", "unit": "nM"}
    ]},
    {"compound": "(Arg-Benz)4-CONH2", "values": [
      {"measurement": "Effect on A11-reactive Aβ42 conformers after 0.5 h", "setting": "Aβ42 oligomers", "value": "had no effect"},
      {"measurement": "Effect on A11-reactive Aβ42 conformers after 4 h", "setting": "Aβ42 oligomers", "value": "remained at higher levels"},
      {"measurement": "Inhibition of seeded Aβ43 fibrillization", "setting": "Aβ43 [3]; Aβ43 5 μM plus seed 0.1 μM monomer, foldamer 5, 10 or 20 μM, 0–2 h, 25°C, EM", "value": "blocked seeded Aβ43 fibrillization"},
      {"measurement": "Inhibition of seeded Aβ43 fibrillization, different assembly conditions", "setting": "Aβ43 [3]", "value": "inhibited"},
      {"measurement": "Inhibition of spontaneous Aβ42 fibrillization", "setting": "Aβ42 [1]", "value": "strong inhibitors; also recorded: potent inhibitors"},
      {"measurement": "Inhibition of spontaneous Aβ42 fibrillization, different assembly conditions", "setting": "Aβ42 [1]", "value": "inhibited"},
      {"measurement": "Effect on A11-reactive Aβ43 conformers after 0.5 h", "setting": "Aβ43 oligomers", "value": "had no effect"},
      {"measurement": "Effect on A11-reactive Aβ43 conformers after 4 h", "setting": "Aβ43 oligomers", "value": "had a similar effect"},
      {"measurement": "Disassembly of Aβ42 fibrils", "setting": "Aβ42 fibrils", "value": "did not disassemble Aβ42 fibrils"},
      {"measurement": "Extent of seeded Aβ42 fibrillization at 4-fold molar excess of foldamer", "setting": "Aβ42 [4]; Aβ42 5 μM plus seed 0.1 μM monomer, foldamer 20 μM", "value": "some fibrillization occurred"},
      {"measurement": "Inhibition of seeded Aβ42 fibrillization", "setting": "Aβ42 [4]; Aβ42 5 μM plus seed 0.1 μM monomer, foldamer 5, 10 or 20 μM, 0–2 h, 25°C", "value": "only inhibited seeded Aβ42 fibrillization when present at a 4-fold molar excess over Aβ42"},
      {"measurement": "Inhibition of seeded Aβ42 fibrillization, different assembly conditions", "setting": "Aβ42 [4]; foldamer 20 μM", "value": "inhibited"},
      {"measurement": "Effect on toxicity of Aβ42 conformers after 0.5 h of assembly", "setting": "[5]", "value": "had no effect"},
      {"measurement": "Effect on toxicity of Aβ42 conformers after 4 h of assembly", "setting": "[5]", "value": "enhanced"},
      {"measurement": "Major Aβ43 species by EM", "setting": "Aβ43 [2]; Aβ43 5 μM, foldamer 10 μM, 4 h, 25°C", "value": "small oligomers were the major species"},
      {"measurement": "Inhibition of spontaneous Aβ43 fibrillization", "setting": "Aβ43 [2]; Aβ43 5 μM, foldamer 5, 10 or 20 μM, 0–8 h, 25°C, ThT, EM 10 μM 4 h", "value": "blocked spontaneous Aβ43 fibrillization"},
      {"measurement": "Inhibition of spontaneous Aβ43 fibrillization, different assembly conditions", "setting": "Aβ43 [2]; 25°C, ThT", "value": "inhibited"},
      {"measurement": "Effect on toxicity of Aβ43 conformers after 0.5 h of assembly", "setting": "[6]", "value": "had no effect"},
      {"measurement": "Effect on toxicity of Aβ43 conformers after 4 h of assembly", "setting": "[6]", "value": "enhanced"},
      {"measurement": "Inhibition of FUS aggregation", "setting": "FUS", "value": "did not inhibit FUS aggregation"}
    ]},
    {"compound": "(Arg-Sal)2-(Cit-Sal)-(Arg-Sal)-CONH2", "values": [
      {"measurement": "Inhibition of spontaneous Aβ42 fibrillization", "setting": "Aβ42 [1]", "value": "ineffective"}
    ]},
    {"compound": "(Arg-Sal-Cit-Sal)2-CONH2", "values": [
      {"measurement": "Inhibition of spontaneous Aβ42 fibrillization", "setting": "Aβ42 [1]", "value": "ineffective"}
    ]},
    {"compound": "(Cit-Sal)2-(Arg-Sal)-(Cit-Sal)-CONH2", "values": [
      {"measurement": "Inhibition of spontaneous Aβ42 fibrillization", "setting": "Aβ42 [1]", "value": "ineffective"}
    ]},
    {"compound": "(Cit-Sal)4-CONH2", "values": [
      {"measurement": "Effect on A11-reactive Aβ42 conformers after 0.5 h", "setting": "Aβ42 oligomers", "value": "had no effect"},
      {"measurement": "Effect on A11-reactive Aβ42 conformers after 4 h", "setting": "Aβ42 oligomers", "value": "had no effect"},
      {"measurement": "Inhibition of seeded Aβ43 fibrillization, different assembly conditions", "setting": "Aβ43 [3]", "value": "had no effect"},
      {"measurement": "Inhibition of spontaneous Aβ42 fibrillization", "setting": "Aβ42 [1]", "value": "ineffective"},
      {"measurement": "Inhibition of spontaneous Aβ42 fibrillization, different assembly conditions", "setting": "Aβ42 [1]", "value": "had no effect"},
      {"measurement": "Effect on A11-reactive Aβ43 conformers after 0.5 h", "setting": "Aβ43 oligomers", "value": "had no effect"},
      {"measurement": "Effect on A11-reactive Aβ43 conformers after 4 h", "setting": "Aβ43 oligomers", "value": "had no effect"},
      {"measurement": "Inhibition of seeded Aβ42 fibrillization, different assembly conditions", "setting": "Aβ42 [4]; foldamer 20 μM", "value": "had no effect"},
      {"measurement": "Effect on toxicity of Aβ42 conformers after 0.5 h of assembly", "setting": "[5]", "value": "had no effect on toxicity"},
      {"measurement": "Effect on toxicity of Aβ42 conformers after 4 h of assembly", "setting": "[5]", "value": "had no effect on toxicity"},
      {"measurement": "Inhibition of spontaneous Aβ43 fibrillization, different assembly conditions", "setting": "Aβ43 [2]; 25°C, ThT", "value": "had no effect"},
      {"measurement": "Effect on toxicity of Aβ43 conformers after 0.5 h of assembly", "setting": "[6]", "value": "had no effect on toxicity"},
      {"measurement": "Effect on toxicity of Aβ43 conformers after 4 h of assembly", "setting": "[6]", "value": "had no effect on toxicity"}
    ]},
    {"compound": "(Cit-Sal)-(Arg-Sal)-(Cit-Sal)2-CONH2", "values": [
      {"measurement": "Inhibition of spontaneous Aβ42 fibrillization", "setting": "Aβ42 [1]", "value": "ineffective"}
    ]},
    {"compound": "(Lys-Sal)2-CONH2", "values": [
      {"measurement": "Inhibition of spontaneous Aβ42 fibrillization", "setting": "Aβ42 [1]", "value": "failed to inhibit assembly"}
    ]},
    {"compound": "(Lys-Sal)3-CONH2", "values": [
      {"measurement": "Inhibition of spontaneous Aβ42 fibrillization", "setting": "Aβ42 [1]", "value": "failed to inhibit assembly"}
    ]}
  ]
}
